Where a name gives a salt, the structure may show the parent alone.
Tested on: angiotensin converting enzyme (ACE)
Experiment: in vivo attenuation of angiotensin I pressor response after oral administration in conscious, normotensive rats
Conditions: maximum during three-hour period, mean of at least four rats
Protocol: The compounds of formula I were tested in vivo in conscious, normotensive rats. Angiotensin I given intravenously increases blood pressure due to conversion to angiotensin II via the angiotensin converting enzyme (ACE). ACE inhibition was reflected by the attenuation of an angiotensin I pressor response after compound administration. The in vivo testing procedure is described in greater detail by Rubin et al., "SQ14,225 (D-3-Mercapto-2-Methylpropanoyl-L-Proline), A Novel Orally Active Inhibitor Of Angiotensin I Converting Enzyme", J. Pharm. Exp. Therap., Vol. 204, p 271-280 (1978).
The inhibition of the angiotensin I pressor response is expressed as the percentage of the response to angiotensin I obtained before the test compound was administered, and was measured at regular intervals during a three-hour period following the administration of the test compound. The maximum percentage inhibition observed during this period is given in the table as a number from 0 to 100 percent. All results are the mean values obtained for testing of each compound in at least four rats. For compounds tested at more than one dose, it can be observed that increased amounts of compound administered lead to increased levels of inhibition.

[1] = oral dose 0.5 (dose unit not given), dilithium salt
[2] = oral dose 1.5 (dose unit not given), dilithium salt
[3] = oral dose 5 (dose unit not given), dilithium salt
[4] = oral dose 15 (dose unit not given)
[5] = oral dose 0.5 (dose unit not given)
[6] = oral dose 1.5 (dose unit not given)
[7] = oral dose 5 (dose unit not given)

Row | Compound | Maximum Percent Inhibition of the angiotensin I pressor response [1] [%] | Maximum Percent Inhibition of the angiotensin I pressor response [2] [%] | Maximum Percent Inhibition of the angiotensin I pressor response [3] [%] | Maximum Percent Inhibition of the angiotensin I pressor response [4] [%] | Maximum Percent Inhibition of the angiotensin I pressor response [5] [%] | Maximum Percent Inhibition of the angiotensin I pressor response [6] [%] | Maximum Percent Inhibition of the angiotensin I pressor response [7] [%] | Maximum Percent Inhibition of the angiotensin I pressor response (oral dose 15 (dose unit not given), dilithium salt) [%]
1 | NCCCC[C@H](OP(=O)(O)CCCCc1ccccc1)C(=O)N1CCC[C@H]1C(=O)O [Example 3, (S)-1-[6-Amino-2-[[hydroxy(4-phenylbutyl)phosphinyl]oxy]-1-oxohexyl]-L-proline, dilithium salt] | 20.90 | 74.00 | 91.00 | 97.10 | – | – | – | –
2 | CCCCCCP(=O)(O)O[C@@H](CCCCN)C(=O)N1CCC[C@H]1C(=O)O [Example 9, (S)-1-[6-Amino-2-[(hexylhydroxyphosphinyl)oxy]-1-oxohexyl]-L-proline] | – | – | – | 90.30 | 17.90 | 66.50 | 82.10 | –
3 | CCCCCCP(=O)(O)O[C@@H](CCCCN)C(=O)N1CCC[C@H]1C(=O)O [Example 8, (S)-1-[6-Amino-2-[(hexylhydroxyphosphinyl)oxy]-1-oxohexyl]-L-proline, dilithium salt] | 19.70 | 72.40 | 82.70 | – | – | – | – | 85.50
4 | CCCCCP(=O)(O)O[C@@H](CCCCN)C(=O)N1CCC[C@H]1C(=O)O [Example 7, 1-[(S)-6-Amino-2-[(hydroxypentylphosphinyl)oxy]-1-oxohexyl]-L-proline] | – | – | – | – | – | – | 57.20 | –
5 | CCCCCCCCP(=O)(O)O[C@@H](CCCCN)C(=O)N1CCC[C@H]1C(=O)O [Example 12, (S)-1-[6-Amino-2-[(octylhydroxyphosphinyl)oxy]-1-oxohexyl]-L-proline, dilithium salt] | – | – | – | 93.60 | 16.80 | 51.10 | 82.60 | –
6 | NCCCC[C@H](OP(=O)(O)CCCCc1ccccc1)C(=O)N1CCC[C@H]1C(=O)O [Example 4, (S)-1-[6-Amino-2-[[hydroxy(4-phenylbutyl)phosphinyl]oxy]-1-oxohexyl]-L-proline] | – | – | – | – | 46.60 | 69.00 | 89.90 | –
7 | NCCCC[C@H](OP(=O)(O)CCCCc1ccc(F)cc1)C(=O)N1CCC[C@H]1C(=O)O [Example 5, (S)-1-[6-Amino-2-[[[4-(4-fluorophenyl)butyl]hydroxyphosphinyl]oxy]-1-oxohexyl]-L-proline] | – | – | – | – | 22.20 | 69.00 | 80.50 | –
8 | NCCCC[C@H](OP(=O)(O)CCCc1ccccc1)C(=O)N1CCC[C@H]1C(=O)O [Example 2, (S)-1-[6-Amino-2-[[hydroxy(3-phenylpropyl)phosphinyl]oxy]-1-oxohexyl]-L-proline] | – | – | – | – | – | 32.30 | 66.70 | –
9 | NCCCC[C@H](OP(=O)(O)CCCCCc1ccccc1)C(=O)N1CCC[C@H]1C(=O)O [Example 6, (S)-1-[6-Amino-2-[[hydroxy(5-phenylpentyl)phosphinyl]oxy]-1-oxohexyl]-L-proline] | – | – | – | – | – | – | 64.70 | –
10 | NCCCC[C@H](OP(=O)(O)CCc1ccccc1)C(=O)N1CCC[C@H]1C(=O)O [Example 1, (S)-1-[6-Amino-2-[[hydroxy(2-phenylethyl)phosphinyl]oxy]-1-oxohexyl]-L-proline, dilithium salt] | – | – | – | – | – | 50.30 | 64.50 | –
11 | CCCCCCCP(=O)(O)O[C@@H](CCCCN)C(=O)N1CCC[C@H]1C(=O)O [Example 10, 1-[(S)-6-Amino-2-[(heptylhydroxyphosphinyl)oxy]-1-oxohexyl]-L-proline] | – | – | – | – | 45.00 | 66.00 | 75.00 | –
